The supplement of paper PMC10307832

Tests used:
Test in all cases: relative viability (nuclei count vs DMSO), 5 days (fraction); higher = more cells survive
[1] = compound: CC1=C(C(=O)N2C=CSC2=N1)CCN3CCC(=C(C4=CC=CC=C4)C5=CC=C(C=C5)F)CC3 + Cc1nc(NC(=O)N2CCC[C@H]2C(N)=O)sc1-c1ccnc(C(C)(C)C(F)(F)F)c1 [Alpelisib] (partner 2 µM)
In short: (§1)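 One day after seeding in 1536-well plates, lung cancer cell lines were dosed by pin tool. Dosing was either single-drug or a fixed anchor-drug dose plus five library-drug doses (not always all listed) in √10 steps. After 5 days, nuclei were stained in one fix-and-stain step and counted on 4× images, and relative viability is the nuclei count of treated wells over that of vehicle wells, given as the median of duplicate plates.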

[2] = compound: CC1=C(C(=O)N2C=CSC2=N1)CCN3CCC(=C(C4=CC=CC=C4)C5=CC=C(C=C5)F)CC3 + CC1(C)CCC(c2ccc(Cl)cc2)=C(CN2CCN(c3ccc(C(=O)NS(=O)(=O)c4ccc(N[C@H](CCN5CCOCC5)CSc5ccccc5)c(S(=O)(=O)C(F)(F)F)c4)cc3)CC2)C1 [Navitoclax] (partner 0.5 µM)
In short: as §1

[3] = compound: CC1=C(C(=O)N2C=CSC2=N1)CCN3CCC(=C(C4=CC=CC=C4)C5=CC=C(C=C5)F)CC3 + C[C@]1(O)C[C@@H](c2nc(-c3ccc4ccc(-c5ccccc5)nc4c3)c3c(N)nccn32)C1 [Linsitinib] (partner 1 µM)
In short: as §1

[4] = compound: CC1=C(C(=O)N2C=CSC2=N1)CCN3CCC(=C(C4=CC=CC=C4)C5=CC=C(C=C5)F)CC3 + O=C(CCCCCCC(=O)Nc1ccccc1)NO [Vorinostat] (partner 1 µM)
In short: as §1

Cell Line	relative viability ([1]; first compound 0.08 µM)	relative viability ([1]; first compound 0.253 µM)	relative viability ([1]; first compound 0.8 µM)	relative viability ([1]; first compound 2.53 µM)	relative viability ([1]; first compound 8 µM)	relative viability ([2]; first compound 0.08 µM)	relative viability ([2]; first compound 0.253 µM)	relative viability ([2]; first compound 0.8 µM)	relative viability ([2]; first compound 2.53 µM)	relative viability ([2]; first compound 8 µM)	relative viability ([3]; first compound 0.08 µM)	relative viability ([3]; first compound 0.253 µM)	relative viability ([3]; first compound 0.8 µM)	relative viability ([3]; first compound 2.53 µM)	relative viability ([3]; first compound 8 µM)	relative viability ([4]; first compound 0.08 µM)	relative viability ([4]; first compound 0.253 µM)	relative viability ([4]; first compound 0.8 µM)	relative viability ([4]; first compound 2.53 µM)	relative viability ([4]; first compound 8 µM)
NCI-H1299	0.997	1.09	1.08	1.03	0.54	1.14	1.03	1.03	1.06	0.654	0.901	0.98	1.09	0.932	0.607					
HCC-44	0.906	0.736	0.863	0.73	0.805	0.989	1.28	1.01	1.13	0.477	0.689	0.818	0.662	0.686	0.579	1.19	1.19	1.09	1.24	0.93
IA-LM	0.554	0.576	0.845	0.988	0.465	0.841	0.7	0.823	0.884	0.523	0.538	0.518	0.822	0.427	0.411	0.524	0.895	1.01	0.756	0.417
NCI-H1915	1.1	1.11	1.07	1.06	0.782	0.741	0.691	0.832	0.807	0.725	1.16	1.12	1.07	1.18	0.832	0.554	0.584	0.538	0.524	0.383
NCI-H596	0.396	0.478	0.624	0.503	0.426	0.85	1.17	1.04	1.1	0.556	0.935	1.1	1.2	1.03	0.755	0.57	0.576	0.626	0.583	0.587
EPLC-272H		0.878	1.05	0.852	0.737		1.18	1.27	1.14	0.827		1.17	1.2	1.09	0.984	0.41		0.444	0.505	0.474
NCI-H23	0.694	0.545	0.772	0.829	0.411	0.722	0.862	0.776	0.863	0.489	0.525	0.762	0.616	0.676	0.339	0.665	0.564	0.473	0.572	0.32
201T	1.02	1.04	1.08	1.07	0.852	1.19	1.16	1.21	1.22	1.23	1.05	1.01	1	1.08	1.13	1.07	0.93	1.02	1.01	0.595
NCI-H2085	0.869	0.909	0.928	0.943	0.773	1.12	1.1	1.21	1.1	0.908	1.1	0.92	1.02	1.06	0.7	0.85	0.827	0.758	0.807	0.707
NCI-H2228	0.75	0.829	0.734	0.595	0.786	0.693	0.914	0.811	0.838	0.623	0.769	0.803	0.672	0.706	0.445	0.474	0.557	0.636	0.599	0.337
BEN	0.826	1.09	1.09	0.974	0.69	0.0374	0.0689	0.0632	0.23	0.108	0.781	0.967	1.07	0.847	0.79	0.548	0.589	0.523	0.682	0.495
HCC-366		0.428	0.471	0.605	0.243		1.09	1.04	1.13	0.343		0.645	0.594	0.946	0.265	0.344	0.405	0.332	0.403	0.256
SK-MES-1	0.881	0.944	0.835	0.87	0.554	1.36	1.21	1.41	1.47	0.86	1.1	1.2	1.08	1.03	0.789	1.1	1.18	1.29	1.17	0.698
CAL-12T	0.811	1.34	1.45	1.49	0.589	1.21	1.34	1.26	1.33	1.2	0.451	0.894	0.833	0.676	0.634	0.566	0.728	0.727	0.957	0.513
NCI-H1666	0.969	1.02	0.902	1.06	0.794	0.991	0.854	1.04	1.16	0.836	0.86	0.734	0.768	0.886	0.621	1	0.911	1.11	1.09	0.891
NCI-H2087	0.999	1.1	1.06	1.24	0.763	1	0.712	0.995	1.23	0.794	1.06	0.9	0.852	1.12	0.745	0.865	0.591	0.859	0.625	0.485
LK-2	1.24	1.19	1.23	1.08	0.773	0.741	0.962	1.11	1.05	0.703	0.548	0.531	0.846	0.502	0.529	0.266	0.233	0.333	0.319	0.199
UMC-11	1.1	0.765	0.977	1.29	0.732	0.288	0.253	0.294	0.309	0.276	1.06	0.972	1.04	1.33	0.824	0.38		0.354	0.333	0.405
HCC-827	0.971	0.964	0.979	1.15	0.859	1.06	1.1	1.01	1.07	0.946	0.961	0.969	0.927	0.996	0.926	0.831	0.655	0.797	0.953	0.688

Cell Line	relative viability ([1]; first compound 0.08 µM)	relative viability ([1]; first compound 0.253 µM)	relative viability ([1]; first compound 0.8 µM)	relative viability ([1]; first compound 2.53 µM)	relative viability ([1]; first compound 8 µM)	relative viability ([2]; first compound 0.08 µM)	relative viability ([2]; first compound 0.253 µM)	relative viability ([2]; first compound 0.8 µM)	relative viability ([2]; first compound 2.53 µM)	relative viability ([2]; first compound 8 µM)	relative viability ([3]; first compound 0.08 µM)	relative viability ([3]; first compound 0.253 µM)	relative viability ([3]; first compound 0.8 µM)	relative viability ([3]; first compound 2.53 µM)	relative viability ([3]; first compound 8 µM)	relative viability ([4]; first compound 0.08 µM)	relative viability ([4]; first compound 0.253 µM)	relative viability ([4]; first compound 0.8 µM)	relative viability ([4]; first compound 2.53 µM)	relative viability ([4]; first compound 8 µM)
LCLC-103H	1.08	1	1.12	1.01	0.918						1.03	1.04	0.973	0.924	0.858	0.891	0.784	0.76	0.75	0.709
NCI-H1975	0.674	0.616	0.656	0.667	0.451	1.08	1.02	1.17	1.26	0.573	0.984	0.817	0.982	0.908	0.519	0.761	0.748	0.748	0.774	0.492
NCI-H1944	0.917	0.815	0.842	0.865	0.777	1.03	0.916	1.02	1.06	1.06	1.3	1.16	1.07	1.21	1.23	0.442	0.502	0.499	0.54	0.377
NCI-H441		0.638	0.79	1.01	0.588		0.694	0.686	0.638	0.371		0.541	0.777	0.654	0.355	0.998	0.628	0.765	1.05	0.61
SK-LU-1	1.24	0.925	1.13	1.33	0.826	0.586	0.899	0.941	0.913	0.371	1.17	0.93	1.15	1.38	0.814	0.773	0.708	0.75	0.783	0.713
NCI-H1648																0.26	0.36	0.603	0.4	0.338
SW 900																0.438	0.751	0.478	0.603	0.241
ABC-1	0.989	0.935	1.08	1.09	0.605						0.655	0.894	0.723	1.02	0.504	1.14		0.938	0.949	0.784
NCI-H650		1.12	1.29	1.09	0.794							0.81	0.779	0.878	0.608	0.731	0.395	0.482	0.486	0.369
NCI-H2170	0.753	0.771	0.844	0.836	0.76	0.515	0.605	0.649	0.492	0.58						0.638	0.791	0.739	0.715	0.463
NCI-H522																0.69	0.86	1.03	1.08	0.736
A549	0.915	0.923	0.747	0.871	0.275	1.32	1.19	1.3	1.37	0.673		0.61	0.658	0.432	0.309					
NCI-H358	0.821	0.912	0.744	1.07	0.553						0.819	0.74	0.779	0.874	0.561	0.687	0.753	0.808	0.885	0.441
NCI-H1650						0.992	1.2	1.16	1.44	0.865						0.426	0.525	0.559	0.593	0.327
Calu-6	1.02	1.06	0.91	0.997	0.807	0.873	0.944	0.935	0.969	0.441	0.927	1.14	0.975	0.875	0.464					
NCI-H1703	0.372	0.316	0.278	0.463	0.306	1.19	1.13	1.1	1.3	0.627	1.14	0.819	0.585	0.888	0.482					
NCI-H661	0.658	0.498	0.461	0.623	0.427						0.581	0.607	0.675	0.483	0.553	0.765	0.761	0.817	0.838	0.406
ChaGo-K-1						1.19	0.888	0.663	1.69	1.11						0.616	0.76	0.809	0.757	0.597
NCI-H1792	0.679	0.6	0.722	0.611	0.545	0.454	0.518	0.602	0.481	0.47	0.446	0.353	0.606	0.379	0.575					
